The text below walks through data of the NIST ThermoML archive (doi:10.1016/j.fluid.2013.11.023).

Numbers after ± are expanded uncertainties.

For the data set the following is noted: Crystal; DTA.

With `Brc1sc(Br)c(Br)c1Br` [perbromothiophene], the Normal melting temperature was 118.60 ± 4 °C.
